Experimental data published in patent US10584115B2, “Substituted pyridine and pyrazine BMI-1 inhibitors” (PTC Therapeutics, Inc., priority 2013, dated 2020).
pEC50: −log10 of the molar value.

The molecules below were run on Bmi-1 protein (assay: Sandwich ELISA Assay (Bmi-1 protein level in HT-1080 cells after compound treatment)). Conditions: Table 1, Bmi-1 sandwich ELISA, read-out: ELISA EC50 value for Bmi-1 protein.
Type: cell-based
In short: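 Sandwich ELISA quantified Bmi-1 protein against recombinant standard (125–8000 pg/mL), with lysates captured overnight at 4 °C and signal by HRP/TMB at 450 nm (570 nm reference). Lysates came from HT-1080 cells incubated 40–48 h with test compounds in 0.5% DMSO.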

| Structure (SMILES) | pEC50 |
| --- | --- |
| ONc1cc(Nc2ccc(C(F)(F)F)cc2)nc(-c2c(C(F)(F)F)nc3ccc(F)cn23)c1 [compound 418, 6-[6-fluoro-2-(trifluoromethyl)imidazo[1,2-a]pyridin-3-yl]-N^4-hydroxy-N^2-[4-(trifluoromethyl)phenyl]pyridine-2,4-diamine] | 7.00 to 8.00 |
| FC(F)(F)c1ccc(Nc2cncc(-c3c(C4CC4)nc4ncccn34)n2)cc1 [compound 422, 6-(2-cyclopropylimidazo[1,2-a]pyrimidin-3-yl)-N-[4-(trifluoromethyl)phenyl]pyrazin-2-amine] | 7.00 to 8.00 |
| Cc1nc2cc(F)c(F)cc2n1-c1cncc(Nc2ccc(N3CCOCC3)nc2)n1 [compound 423, 6-(5,6-difluoro-2-methyl-1H-benzimidazol-1-yl)-N-[6-(morpholin-4-yl)pyridin-3-yl]pyrazin-2-amine] | 7.00 to 8.00 |
| Cc1nc2ccccc2n1-c1cncc(NC2Cc3ccccc3C2)n1 [compound 424, N-(2,3-dihydro-1H-inden-2-yl)-6-(2-methyl-1H-benzimidazol-1-yl)pyrazin-2-amine] | 5.52 to 7.00 |
| Cc1nc2cc(F)c(F)cc2n1-c1cncc(Nc2ccc(NCCO)nc2)n1 [compound 425, 2-[(5-{[6-(5,6-difluoro-2-methyl-1H-benzimidazol-1-yl)pyrazin-2-yl]amino}pyridin-2-yl)amino]ethanol] | 7.00 to 8.00 |
| Cc1nc2cc(F)ccc2n1-c1cncc(Nc2ccc(Cl)nc2)n1 [compound 426, N-(6-chloropyridin-3-yl)-6-(5-fluoro-2-methyl-1H-benzimidazol-1-yl)pyrazin-2-amine] | 5.52 to 7.00 |
| Cc1nc2ccc(F)cc2n1-c1cncc(Nc2ccc(Cl)nc2)n1 [compound 427, N-(6-chloropyridin-3-yl)-6-(6-fluoro-2-methyl-1H-benzimidazol-1-yl)pyrazin-2-amine] | 7.00 to 8.00 |
| Cc1nc2cc(F)c(F)cc2n1-c1cncc(Nc2ccc(NCCN(C)C)nc2)n1 [compound 430, N^5-[6-(5,6-difluoro-2-methyl-1H-benzimidazol-1-yl)pyrazin-2-yl]-N^2-[2-(dimethylamino)ethyl]pyridine-2,5-diamine] | 5.52 to 7.00 |
| Cc1nc2cc(F)ccc2n1-c1cncc(Nc2ccc(C(F)(F)F)nc2)n1 [compound 431, 6-(5-fluoro-2-methyl-1H-benzimidazol-1-yl)-N-[6-(trifluoromethyl)pyridin-3-yl]pyrazin-2-amine] | 7.00 to 8.00 |
| Cc1nc2ccc(F)cc2n1-c1cncc(Nc2ccc(C(F)(F)F)nc2)n1 [compound 432, 6-(6-fluoro-2-methyl-1H-benzimidazol-1-yl)-N-[6-(trifluoromethyl)pyridin-3-yl]pyrazin-2-amine] | 7.00 to 8.00 |
| Cc1nc2ccccc2n1-c1cncc(Nc2ccc(B3OC(C)(C)C(C)(C)O3)cc2)n1 [compound 433, 6-(2-methyl-1H-benzimidazol-1-yl)-N-[4-(4,4,5,5-tetramethyl-1,3,2-dioxaborolan-2-yl)phenyl]pyrazin-2-amine] | 5.52 to 7.00 |
| Cc1nc2ccccc2n1-c1cncc(Nc2ccc(B(O)O)cc2)n1 [compound 434, (4-{[6-(2-methyl-1H-benzimidazol-1-yl)pyrazin-2-yl]amino}phenyl)boronic acid] | 7.00 to 8.00 |
| Cc1nc2ncc(F)cn2c1-c1cc(C#N)cc(Nc2ccc(OC(F)(F)F)cc2)n1 [compound 438, 2-(6-fluoro-2-methylimidazo[1,2-a]pyrimidin-3-yl)-6-{[4-(trifluoromethoxy)phenyl]amino}pyridine-4-carbonitrile] | 7.00 to 8.00 |
| Cc1nc2ccccc2n1-c1cncc(Nc2nc3ccc(C(F)(F)F)cc3s2)n1 [compound 440, N-[6-(2-methyl-1H-benzimidazol-1-yl)pyrazin-2-yl]-6-(trifluoromethyl)-1,3-benzothiazol-2-amine] | 5.52 to 7.00 |
| N#Cc1cc(Nc2ccc(C(F)(F)F)nc2)nc(-c2c(CO)nc3ccc(F)cn23)c1 [compound 445, 2-[6-fluoro-2-(hydroxymethyl)imidazo[1,2-a]pyridin-3-yl]-6-{[6-(trifluoromethyl)pyridin-3-yl]amino}pyridine-4-carbonitrile] | 7.00 to 8.00 |
| N#Cc1cc(Nc2ccc(Cl)nc2)nc(-c2c(CO)nc3ccc(F)cn23)c1 [compound 446, 2-[(6-chloropyridin-3-yl)amino]-6-[6-fluoro-2-(hydroxymethyl)imidazo[1,2-a]pyridin-3-yl]pyridine-4-carbonitrile] | 5.52 to 7.00 |
| CCc1nc2ncc(Cl)cc2n1-c1cc(C#N)cc(Nc2ccc(C(F)(F)F)cc2)n1 [compound 450, 2-(6-chloro-2-ethyl-1H-imidazo[4,5-b]pyridin-1-yl)-6-{[4-(trifluoromethyl)phenyl]amino}pyridine-4-carbonitrile] | 7.00 to 8.00 |
| CCc1nc2ncc(Cl)cc2n1-c1cc(C#N)cc(Nc2ccc(OC(F)F)cc2)n1 [compound 452, 2-(6-chloro-2-ethyl-1H-imidazo[4,5-b]pyridin-1-yl)-6-{[4-(difluoromethoxy)phenyl]amino}pyridine-4-carbonitrile] | 7.00 to 8.00 |
| Cc1nc2ncc(F)cn2c1-c1cncc(Nc2ccc(C(F)(F)F)cc2)n1 [compound 453, 6-(6-fluoro-2-methylimidazo[1,2-a]pyrimidin-3-yl)-N-[4-(trifluoromethyl)phenyl]pyrazin-2-amine] | 7.00 to 8.00 |
| Fc1cnc2nc(C3CC3)n(-c3cncc(Nc4ccc(OC(F)F)cc4)n3)c2c1 [compound 455, 6-(2-cyclopropyl-6-fluoro-1H-imidazo[4,5-b]pyridin-1-yl)-N-[4-(difluoromethoxy)phenyl]pyrazin-2-amine] | 7.00 to 8.00 |
| Fc1cnc2nc(C3CC3)n(-c3cncc(Nc4ccc(OC(F)(F)F)cc4)n3)c2c1 [compound 456, 6-(2-cyclopropyl-6-fluoro-1H-imidazo[4,5-b]pyridin-1-yl)-N-[4-(trifluoromethoxy)phenyl]pyrazin-2-amine] | 5.52 to 7.00 |
| Cc1nc2ccccc2n1-c1cncc(Nc2ccc(C(F)(F)F)cn2)n1 [compound 457, 6-(2-methyl-1H-benzimidazol-1-yl)-N-[5-(trifluoromethyl)pyridin-2-yl]pyrazin-2-amine] | 5.52 to 7.00 |
| Fc1cnc2nc(C3CC3)n(-c3cncc(Nc4ccc(C(F)(F)F)nc4)n3)c2c1 [compound 458, 6-(2-cyclopropyl-6-fluoro-1H-imidazo[4,5-b]pyridin-1-yl)-N-[6-(trifluoromethyl)pyridin-3-yl]pyrazin-2-amine] | 5.52 to 7.00 |
| Fc1cnc2nc(C3CC3)n(-c3cncc(Nc4ccc(OC(F)F)c(F)c4)n3)c2c1 [compound 459, 6-(2-cyclopropyl-6-fluoro-1H-imidazo[4,5-b]pyridin-1-yl)-N-[4-(difluoromethoxy)-3-fluorophenyl]pyrazin-2-amine] | 7.00 to 8.00 |

Results, then the molecule that gave them:

| pEC50 | Structure (SMILES) |
| --- | --- |
| 8.00 to 9.00 | Cc1nn(C)c(Cl)c1-c1cncc(Nc2ccc(C(F)(F)F)cc2)n1 [compound 412, 6-(5-chloro-1,3-dimethyl-1H-pyrazol-4-yl)-N-[4-(trifluoromethyl)phenyl]pyrazin-2-amine] |
| 8.00 to 9.00 | Cc1nn(C)c(Cl)c1-c1cncc(Nc2ccc(OC(F)F)cc2)n1 [compound 413, 6-(5-chloro-1,3-dimethyl-1H-pyrazol-4-yl)-N-[4-(difluoromethoxy)phenyl]pyrazin-2-amine] |
| 7.00 to 8.00 | Cc1nn(C)c(Cl)c1-c1cncc(Nc2ccc(OC(F)(F)F)cc2)n1 [compound 414, 6-(5-chloro-1,3-dimethyl-1H-pyrazol-4-yl)-N-[4-(trifluoromethoxy)phenyl]pyrazin-2-amine] |
| 7.00 to 8.00 | Cc1nn(C)c(Cl)c1-c1cncc(Nc2ccc(OC(F)F)c(F)c2)n1 [compound 415, 6-(5-chloro-1,3-dimethyl-1H-pyrazol-4-yl)-N-[4-(difluoromethoxy)-3-fluorophenyl]pyrazin-2-amine] |
| 7.00 to 8.00 | Cn1nc2ccc(F)cc2c1-c1cncc(Nc2ccc(C(F)(F)F)cc2)n1 [compound 416, 6-(5-fluoro-2-methyl-2H-indazol-3-yl)-N-[4-(trifluoromethyl)phenyl]pyrazin-2-amine] |
| 7.00 to 8.00 | Cc1nc2c(F)cc(F)cc2n1-c1cncc(Nc2ccc(C(F)(F)F)cc2)n1 [compound 417, 6-(4,6-difluoro-2-methyl-1H-benzimidazol-1-yl)-N-[4-(trifluoromethyl)phenyl]pyrazin-2-amine] |
| 8.00 to 9.00 | Cc1nc2ncc(Cl)cc2n1-c1cc(C#N)cc(Nc2ccc(C(F)(F)F)cc2)n1 [compound 419, 2-(6-chloro-2-methyl-1H-imidazo[4,5-b]pyridin-1-yl)-6-{[4-(trifluoromethyl)phenyl]amino}pyridine-4-carbonitrile] |
| 8.00 to 9.00 | Cc1nc2ccccc2n1-c1cncc(Nc2nc3ccccc3s2)n1 [compound 420, N-[6-(2-methyl-1H-benzimidazol-1-yl)pyrazin-2-yl]-1,3-benzothiazol-2-amine] |
| 8.00 to 9.00 | Cc1nc2ncc(Cl)cc2n1-c1cc(C#N)cc(Nc2ccc(OC(F)F)cc2)n1 [compound 428, 2-(6-chloro-2-methyl-1H-imidazo[4,5-b]pyridin-1-yl)-6-{[4-(difluoromethoxy)phenyl]amino}pyridine-4-carbonitrile] |
| 8.00 to 9.00 | Cc1nc2ncc(Cl)cc2n1-c1cc(C#N)cc(Nc2ccc(OC(F)F)c(F)c2)n1 [compound 429, 2-(6-chloro-2-methyl-1H-imidazo[4,5-b]pyridin-1-yl)-6-{[4-(difluoromethoxy)-3-fluorophenyl]amino}pyridine-4-carbonitrile] |
| 8.00 to 9.00 | CCc1nc2ncc(Cl)cc2n1-c1cc(C#N)cc(Nc2ccc(OC(F)F)cc2)n1 [compound 451, 2-(6-chloro-2-ethyl-1H-imidazo[4,5-b]pyridin-1-yl)-6-{[4-(difluoromethoxy)phenyl]amino}pyridine-4-carbonitrile] |

Same assay, conditions: read-out: ELISA EC50 value for Bmi-1 protein, Table 1, Bmi-1 sandwich ELISA

| Structure (SMILES) | pEC50 |
| --- | --- |
| Cn1nc2c(c1-c1cncc(Nc3ccc(C(F)(F)F)cc3)n1)CCCC2 [compound 454, 6-(2-methyl-4,5,6,7-tetrahydro-2H-indazol-3-yl)-N-[4-(trifluoromethyl)phenyl]pyrazin-2-amine] | 8.00 to 9.00 |
